Test results: PubChem BioAssay (NCI)
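All cell lines were grown in 96-well plates and treated with compound for 48 hours. GI50: concentration for 50% inhibition of growth. At the TGI there is no net growth.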

How the values were obtained:
Assay in all cases: growth of human tumour cells (NCI), 48 h
[1] = test system: RPMI-8226 leukemia
[2] = test system: A498 renal
[3] = test system: SNB-75 CNS
[4] = test system: SK-MEL-28 melanoma
[5] = test system: TK-10 renal
[6] = test system: PC-3 prostate
[7] = test system: MDA-MB-435
[8] = test system: SK-OV-3 ovarian
[9] = test system: NCI-H226 lung
[10] = test system: HOP-62 NSCLC
[11] = test system: SW-620 colon
[12] = test system: MOLT-4 leukemia
[13] = test system: IGROV1 ovarian
[14] = test system: SK-MEL-2 melanoma
[15] = test system: SN12C renal
[16] = test system: SF-539 CNS
[17] = test system: RXF 393 renal
[18] = test system: HCT-15 colon
[19] = test system: HOP-92 NSCLC
[20] = test system: MCF7 breast
[21] = test system: SF-295 CNS
[22] = test system: 786-0 renal
[23] = test system: MDA-MB-231 breast
[24] = test system: U251 CNS
[25] = test system: OVCAR-4 ovarian
[26] = test system: K-562 leukemia
[27] = test system: HL-60(TB) leukemia
[28] = test system: NCI-H460 lung
[29] = test system: KM12 colon
[30] = test system: SF-268 CNS
[31] = test system: UACC-257 melanoma
[32] = test system: HCC-2998 colon
[33] = test system: COLO 205 colon
[34] = test system: CAKI-1 renal
[35] = test system: OVCAR-8 ovarian
[36] = test system: T-47D breast
[37] = test system: NCI/ADR-RES ovarian
[38] = test system: UACC-62 melanoma
[39] = test system: NCI-H23 lung
[40] = test system: SNB-19 CNS
[41] = test system: MALME-3M melanoma
[42] = test system: HS 578T breast
[43] = test system: HCT-116 colon
[44] = test system: NCI-H522 lung
[45] = test system: ACHN renal
[46] = test system: M14 melanoma
[47] = test system: SK-MEL-5 melanoma
[48] = test system: HT29 colon
[49] = test system: UO-31 renal
[50] = test system: BT-549 breast
[51] = test system: DU-145 prostate
[52] = test system: A549 NSCLC
[53] = test system: LOX IMVI melanoma
[54] = test system: EKVX NSCLC
[55] = test system: OVCAR-5 ovarian
[56] = test system: SR leukemia
[57] = test system: OVCAR-3 ovarian
[58] = test system: CCRF-CEM leukemia

With `CC(C)CSc1nc(Nc2ccccc2)c(C#N)c(-c2ccc(F)cc2)n1` the GI50 [1] was 5.49 µM, the TGI [1] was > 100 µM and the GI50 [2] was 1.19 µM. It also gave a TGI [2] of 6.13 µM, a GI50 [3] of 1.24 µM and a TGI [3] of 5.21 µM. The GI50 [4] was 12.2 µM, the TGI [4] was 35.5 µM and the GI50 [5] was 1.61 µM. It also gave a TGI [5] of 6.33 µM, a GI50 [6] of 18.1 µM and a TGI [6] of 81.2 µM. The GI50 [7] was 13 µM, the TGI [7] was 42.2 µM and the GI50 [8] was 8.13 µM. It also gave a TGI [8] of 32.5 µM, a GI50 [9] of 3.79 µM and a TGI [9] of 20.1 µM. The GI50 [10] was 2.1 µM, the TGI [10] was 12.9 µM and the GI50 [11] was 8.63 µM. For the same molecule, the TGI [11] was > 100 µM, the GI50 [12] was 11 µM and the TGI [12] was > 100 µM. It also gave a GI50 [13] of 0.702 µM, a TGI [13] of 10 µM and a GI50 [14] of 13.7 µM. It also gave a TGI [14] of 30.2 µM, a GI50 [15] of 0.597 µM and a TGI [15] of 3.14 µM. The GI50 [16] was 2.5 µM, the TGI [16] was 13.3 µM and the GI50 [17] was 1.75 µM. For the same molecule, the TGI [17] was 6.18 µM, the GI50 [18] was 9.06 µM and the TGI [18] was > 100 µM. It also gave a GI50 [19] of 0.605 µM, a TGI [19] of 2.63 µM and a GI50 [20] of 22.8 µM. For the same molecule, the TGI [20] was > 100 µM, the GI50 [21] was 0.971 µM and the TGI [21] was 11.4 µM. The GI50 [22] was 1.9 µM, the TGI [22] was 5.19 µM and the GI50 [23] was 2.25 µM. The TGI [23] was 13 µM, the GI50 [24] was 0.652 µM and the TGI [24] was 2.78 µM. The GI50 [25] was 0.335 µM, the TGI [25] was 1.16 µM and the GI50 [26] was 5.31 µM. The TGI [26] was > 100 µM, the GI50 [27] was > 100 µM and the TGI [27] was > 100 µM. It also gave a GI50 [28] of 0.806 µM, a TGI [28] of 12.1 µM and a GI50 [29] of 48.2 µM. For the same molecule, the TGI [29] was > 100 µM, the GI50 [30] was 4.41 µM and the TGI [30] was 22.7 µM. For the same molecule, the GI50 [31] was 10.3 µM, the TGI [31] was 33.3 µM and the GI50 [32] was 13.1 µM. The TGI [32] was > 100 µM, the GI50 [33] was 1.86 µM and the TGI [33] was 20.1 µM. For the same molecule, the GI50 [34] was 0.486 µM, the TGI [34] was 2.46 µM and the GI50 [35] was 3.27 µM. It also gave a TGI [35] of 16.1 µM, a GI50 [36] of 2.97 µM and a TGI [36] of 32.8 µM. It also gave a GI50 [37] of 4.87 µM, a TGI [37] of 25.3 µM and a GI50 [38] of 16.5 µM. The TGI [38] was 43.5 µM, the GI50 [39] was 6.35 µM and the TGI [39] was 28.7 µM. It also gave a GI50 [40] of 2.45 µM, a TGI [40] of 13.2 µM and a GI50 [41] of 2.27 µM. It also gave a TGI [41] of 10.6 µM, a GI50 [42] of 1.6 µM and a TGI [42] of 11 µM. The GI50 [43] was 2.01 µM, the TGI [43] was 11.9 µM and the GI50 [44] was 14.4 µM. The TGI [44] was 71.4 µM, the GI50 [45] was 0.403 µM and the TGI [45] was 1.47 µM. For the same molecule, the GI50 [46] was 6 µM, the TGI [46] was 21 µM and the GI50 [47] was 24.7 µM. For the same molecule, the TGI [47] was 82.4 µM, the GI50 [48] was 14.5 µM and the TGI [48] was > 100 µM. It also gave a GI50 [49] of 2.04 µM, a TGI [49] of 22.1 µM and a GI50 [50] of 7.24 µM. It also gave a TGI [50] of 32.3 µM, a GI50 [51] of 11 µM and a TGI [51] of 27.7 µM. It also gave a GI50 [52] of 1.71 µM, a TGI [52] of 18.8 µM and a GI50 [53] of 2.98 µM. For the same molecule, the TGI [53] was 21.4 µM, the GI50 [54] was 1.73 µM and the TGI [54] was 16.5 µM. For the same molecule, the GI50 [55] was 4.03 µM, the TGI [55] was 24 µM and the GI50 [56] was 0.976 µM. For the same molecule, the TGI [56] was 14 µM, the GI50 [57] was 1.11 µM and the TGI [57] was 4.22 µM. The GI50 [58] was 5.53 µM and the TGI [58] was > 100 µM.
